Laboratory results published in patent publication US20090227620A1, “ANTI-INFLAMMATORY COMPOUNDS” (priority 2005, published 2009).

What was measured:
[1] = tested on: irritant contact dermatitis elicited with tetradecanoylphorbol-13-acetate (TPA) on ears of mice; test: Anti-Inflammatory Test System (TPA-elicited irritant contact dermatitis, mouse ear); assay type: in vivo, strain NMRI; conditions: for anti-inflammatory activity (in words): mouse, in vivo; for inhibition in % (auricular weight, inflammatory swelling): topical 10 μl, 30 min before TPA, read 6 hours after
Experimental: The test sites on the inner surface of the right external ears of mice, e.g. strain NMRI, (8 per group) are treated with 10 μl of the dissolved test compound or with the vehicle (a 4:4:2 mixture of ethanol/acetone/dimethylacetamide) alone. The test compounds are applied at concentrations shown in the TEST RESULT TABLE. Thirty minutes after the treatment irritant contact dermatitis is elicited at the treated auricular sites with 10 μl 0.005% tetradecanoylphorbol-13-acetate (TPA). Skin inflammation is assessed 6 hours after the elicitation by determination of the auricular weights, as a measure of inflammatory swelling. The animals are killed and both ears are cut off and weighed. Inhibitory activity of test compounds is calculated from differences in right and left ears (internal controls) in mice treated with the test compounds compared with animals treated with the vehicle only. Results obtained are as set out in TEST RESULT TABLE below: In the TEST RESULT TABLE the concentrations of the compounds (in bold) used are indicated in micromol/litre. The values given in the TEST RESULT TABLE (in regular letters) are the inhibition in % determined according to the ANTI-INFLAMMATORY TEST SYSTEM used.

[2] = target: T1, purified human steroid sulfatase (Homo sapiens, UniProt P08842); test: Assay of Human Steroid Sulfatase (4-methylumbelliferyl sulfate cleavage, fluorescence); conditions: reference compound, determined in parallel to test compounds
T1 sequence (P08842 22-583): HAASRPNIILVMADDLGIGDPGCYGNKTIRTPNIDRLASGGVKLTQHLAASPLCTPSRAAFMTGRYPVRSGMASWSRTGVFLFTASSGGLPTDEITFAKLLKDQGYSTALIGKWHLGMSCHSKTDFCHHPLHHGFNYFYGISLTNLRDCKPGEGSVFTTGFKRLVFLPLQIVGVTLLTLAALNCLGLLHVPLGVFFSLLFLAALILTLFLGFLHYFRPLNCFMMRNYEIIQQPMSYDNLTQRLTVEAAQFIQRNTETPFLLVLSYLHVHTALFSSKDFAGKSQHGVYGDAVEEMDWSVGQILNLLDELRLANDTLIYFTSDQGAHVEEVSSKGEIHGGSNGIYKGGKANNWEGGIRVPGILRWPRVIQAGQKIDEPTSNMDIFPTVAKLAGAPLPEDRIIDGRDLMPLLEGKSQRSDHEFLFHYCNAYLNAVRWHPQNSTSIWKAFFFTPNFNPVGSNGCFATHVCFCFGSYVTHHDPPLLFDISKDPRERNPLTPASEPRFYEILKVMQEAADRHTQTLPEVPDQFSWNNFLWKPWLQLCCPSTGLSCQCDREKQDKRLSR
Experimental: Human placenta is obtained freshly after delivery and stripped of membranes and connective tissues. For storage, the material is frozen at −70° C. After thawing, all further steps are carried out at 4° C., while pH values are adjusted at 20° C. 400 g of the tissue is homogenized in 1.2 l of buffer A (50 mM Tris-HCl, pH 7.4, 0.25 M sucrose). The homogenate obtained is centrifuged at 10,000×g for 45 minutes. The supernatant is set aside and the pellet obtained is re-homogenized in 500 ml of buffer A. After centrifugation, the two supernatants obtained are combined and subjected to ultracentrifugation (100,000×g, 1 hour). The pellet obtained is resuspended in buffer A and centrifugation is repeated. The pellet obtained is suspended in 50 ml of 50 mM Tris-HCl, pH 7.4 and stored at −20° C. until further work-up. After thawing, microsomes are collected by ultracentrifugation (as described above) and are suspended in 50 ml of buffer B (10 mM Tris-HCl, pH 7.0, 1 mM EDTA, 2 mM 2-mercaptoethanol, 1% Triton X-100, 0.1% aprotinin). After 1 hour on ice with gentle agitation, the suspension is centrifuged (100,000×g, 1 hour). The supernatant containing the enzyme activity is collected and the pH is adjusted to 8.0 with 1 M Tris. […]
Plates are incubated at 37° C. for 1 hour. […] Fluorescence intensity is determined in a Titertek Fluoroskan II instrument with λex=355 nm and λem=460 nm. […]

[3] = first value, column head printed 0 micromol/litre (alignment unclear)
[4] = second value, column head printed 0.1 micromol/litre (alignment unclear)
[5] = third value, column head printed 0.3 micromol/litre (alignment unclear)

melting point	Compound	anti-inflammatory activity (in words) [1]	inhibition in % (auricular weight, inflammatory swelling) [1, 3]	inhibition in % (auricular weight, inflammatory swelling) [1, 4]	inhibition in % (auricular weight, inflammatory swelling) [1, 5]	IC50 [2]
268 to 273 °C	NC(=O)c1ccc(C(F)(F)F)cc1N1CCC(CS(=O)(=O)NC(=O)c2cc(C(F)(F)F)cc(C(F)(F)F)c2)CC1 [Example 379]					
	CC(C)(C)OC(=O)N1CC2CCCCC(C1)C2C(=O)NS(=O)(=O)c1cc(C(F)(F)F)cc(C(F)(F)F)c1 (stereo not shown) [Example 217, 10-(3,5-bis-trifluoromethyl-benzenesulfonylaminocarbonyl)-8-aza-bicyclo[4.3.1]decane-8-carboxylic acid tert-butyl ester]	anti-inflammatory activity	20%	36%	45%	
	C[C@]12CC[C@@H]3c4ccc(OS(N)(=O)=O)cc4CC[C@H]3[C@@H]1CCC2=O [estrone sulfamate, estrone 3-O-sulfamate]					~60 nM
	CC(C)(C)OC(=O)N1CC2CCCCC(C1)C2C(=O)NS(=O)(=O)c1cc(C(F)(F)F)cc(C(F)(F)F)c1 (stereo not shown) [Example 218]	anti-inflammatory activity	20%	36%	45%	
